Results reported in publication PMC6222509, “Dibasic Derivatives of Phenylcarbamic Acid against Mycobacterial Strains: Old Drugs and New Tricks?” (Molecules : A Journal of Synthetic Chemistry and Natural …, 2018).
≈ marks a conversion by molar mass, not a printed value. Like-named read-outs stand apart in the source and are kept apart here.

Columns and labels:
[1] = system: Mycobacterium tuberculosis CNCTC My 331/88 (identical with H37Rv and ATCC 2794; MTv H37Rv); test: in vitro antimycobacterial MIC, dilution micromethod in Šula's semisynthetic medium; format: cell-based; conditions: Mycobacterium tuberculosis
[2] = surface tension, drop count method, Traube stalagmometer; format: physicochemical; conditions: aqueous solution c = 2.0 × 10^−3 M, 21 °C; water γ = 0.07259 N/m
Procedure: Surface tension (relative surface activity; γ) of aqueous solutions of the compounds 1a–p (c = 2.0 × 10^−3 M) was determined by a drop count technique using a Traube stalagmometer. All evaluated substances were able to decrease surface tension of water (γ = 0.07259 N/m) at 21 °C.
Surface tension (relative surface activity; γ) of the derivatives 1a–p was determined by a drop count method using a glassy Traube stalagmometer (Kavalier Glass, Prague, Czech Republic). Number of drops of compounds’ and reference solutions were counted between upper and lower marks of the stalagmometer. Aqueous solutions of the molecules 1a–p were prepared with distilled, deionized water (c = 2.0 × 10^−3 M). […] The drops were allowed to form at constant temperature 21 °C. The experimental procedure was described in a paper. Current measurements were done in six replicates and average γ values (in N/m units) were reported (Table 1).

[3] = system: M. smegmatis ATCC 700084 (MS); test: in vitro antimycobacterial MIC, broth dilution micromethod in Middlebrook 7H9; format: cell-based, Mycobacterium smegmatis; conditions: Mycolicibacterium smegmatis, ATCC700084, 72 h
[4] = lipophilicity by isocratic RP-HPLC (log k, k, log kw, S); format: physicochemical; conditions: for log kw: extrapolated to 100% water from log k versus ϕM; for S (slope): slope of log k versus ϕM regression
Description: Octadecyl-functionalized silica gel was currently used as a stationary phase (SPh) and a […] of two solvents at different volume ratios modified retention properties of the SPh. Liquid binary mixtures of methanol (MeOH) with water were employed as mobile phases (MPhs) in the isocratic RP-HPLC. The MeOH modifier was preferred because of similarity of both observed and extrapolated lipophilicity parameters with the ones determined in the octan-1-ol/water partition system, considering also sensitivity to H-bond donor properties of investigated compounds [41].
The modifier was applied in different volume concentrations, which varied from […] (v/v) with 5% increments. This interval was chosen due to very high lipophilicity of investigated salts. Practically, lower volume concentration of MeOH, i.e., less than 85% (v/v) in used MPhs, caused uncertainty of retention times (tr) due to notable peaks broadening, especially within subsets 1i–l and 1m–p. […] The highest tr parameters were found for the molecules 1k (tr = 47.108 min) and 1l (tr = 70.012 min) in the MPh containing 85% proportion (v/v) of MeOH (Table 2).
According to the authors’ opinions based on systematic scientific literature survey, a current research paper was the first, which aimed the log kw parameters of 2-/3-alkoxyphenylcarbamic acid derivatives containing two centers of protonation. The log kw values were extrapolated from intercepts of a relationship between log k and volume fraction of the MPh modifier (ϕM) using the Snyder–Soczewiński linear solvent strength model. The relationship was justified by R > 0.9900, Adj. R^2 > 0.9750 as well as F > 180.00 for calculation of particular log kw parameters (Table 3).
The HPLC separation module Waters e2695 equipped with a Waters 2996 PDA Detector (Waters Corp., Milford, MA, USA) and chromatographic column Symmetry C18 × 5 μm, 4.6 × 250 mm, Part No. W21751W016 (Waters Corp.) were used for estimation of lipophilic properties of the compounds 1a–p at 21 °C.
Isocratic elution was carried out using mobile phases consisting of methanol p.a. (MeOH; Honeywell, Paris, France) and purified water in various volume ratios (80:20, 85:15, 90:10, 95:5 (v/v) and pure MeOH, respectively). Distilled water (CentralChem, Bratislava, Slovak Republic) was purified by the Aquinity2 P10 ultra-pure water system for production of ultra-pure water with an integrated 10 L permeate tank (membraPure, Hennigsdorf, Germany).
Total flow of the column was 1.0 mL/min, injection volume was 4 μL and column temperature was set to 40 °C. The detection wavelengths varying from 236 nm to 238 nm were chosen for current experimental procedures.
Lipophilicity of the compounds 1a–p was determined by reversed-phase high-performance liquid chromatography (RP-HPLC). Methanol (MeOH)/water mobile phases with varying volume ratio of the organic modifier and water (80:20, 85:15, 90:10, 95:5 (v/v) and pure MeOH, respectively) were chosen.
A methanolic solution of potassium iodine was used for dead time (td) determination. Retention factors (capacity factors; k) were calculated according to Equation (17):k = (tr− td)/td(17) where tr was retention time of a solute (in min), the td parameter denoted dead time of potassium iodine, an unretained analyte (in min).
The observed retention (tr) and dead (td) times were means of three independent determinations. Average td values of potassium iodine in used MPhs were as follows: 2.237 min (MeOH/water ratio (v/v) was 80:20), 2.245 min (85:15), 2.245 min (90:10), 2.228 min (95:5) and 2.210 min (pure MeOH), respectively. […]

[5] = system: M. avium CNCTC My 330/80 (identical with ATCC 25291; MA 330/80); test: in vitro antimycobacterial MIC, dilution micromethod in Šula's semisynthetic medium; format: cell-based, Mycobacterium avium; conditions: Mycobacterium avium
[6] = 336 h, 14-day cultivation, read-out: MIC MTv H37Rv 14-d
[7] = 504 h, 21-day cultivation, read-out: MIC MTv H37Rv 21-d
[8] = 3-day cultivation, 37 °C, read-out: MIC MS 3-d
[9] = mobile phase MeOH/water 80:20 (v/v)
[10] = mobile phase MeOH/water 85:15 (v/v)
[11] = mobile phase MeOH/water 90:10 (v/v)
[12] = mobile phase MeOH/water 95:5 (v/v)
[13] = ATCC25291, 336 h, 14-day cultivation, read-out: MIC MA 330/80 14-d
[14] = ATCC25291, 504 h, 21-day cultivation, read-out: MIC MA 330/80 21-d
[15] = read-out: MIC MS 3-d, 3-day cultivation, 37 °C
[16] = ATCC25291, 336 h, read-out: MIC MA 330/80 14-d
[17] = ATCC25291, 504 h, read-out: MIC MA 330/80 21-d

Row | Structure (SMILES) | MIC [1, 6] [µM] | MIC [1, 7] [µM] | surface tension γ (relative surface activity) [2] [N/m] | log kw [4] | k (retention factor) [4, 9] | log k [4, 9] | k (retention factor) [4, 10] | log k [4, 10] | k (retention factor) [4, 11] | log k [4, 11] | k (retention factor) [4, 12] | log k [4, 12] | k (retention factor) ([4]; mobile phase pure MeOH) | log k ([4]; mobile phase pure MeOH) | S (slope) [4] | MIC [5, 13] [µM] | MIC [5, 14] [µM] | MIC [3, 15] [µM] | MIC [5, 16] [µM] | MIC [5, 17] [µM] | other results
1 | CCCCOc1cccc(NC(=O)OC(CN(CCC)CCC)CN2CCCC2)c1 (stereo not shown) [1e] | 16 (≈ 6.71 µg/mL) | 32 (≈ 13.4 µg/mL) | 0.06316 | 4.0258 | 3.6174 | 0.5584 | 2.0811 | 0.3183 | 1.4054 | 0.1478 | 0.7155 | −0.1454 | 0.5063 | −0.2956 | 4.3434 | 62.5 (≈ 26.2 µg/mL) | 62.5 (≈ 26.2 µg/mL) |  |  |  | MIC [3, 8]: 16.2 µM (≈ 6.8 µg/mL)
2 | CCCCCCCOc1cccc(NC(=O)OC(CN(CCC)CCC)CN2CCCC2)c1.Cl.Cl (stereo not shown) [1h, 1-[2-[({[3-(heptyloxy)phenyl]amino}carbonyl)oxy]-3-(dipropylammonio)propyl]pyrrolidinium dichloride] | 4 | 8 | 0.05786 | 5.5384 | 8.9557 | 0.9521 | 5.1988 | 0.7159 | 2.8609 | 0.4565 | 1.6188 | 0.2092 | 0.6091 | −0.2153 | 5.6830 |  |  | 15 | 8 | 16 | MIC ([5]; ATCC25291, read-out: MIC MA 330/80): 16 µM
3 | CCCCCOc1cccc(NC(=O)OC(CN(CCC)CCC)CN2CCCCCC2)c1.Cl.Cl (stereo not shown) [1n, 1-[2-[({[3-(pentyloxy)phenyl]amino}carbonyl)oxy]-3-(di-propylammonio)propyl]azepanium dichloride] | 4 | 8 | 0.06154 | 5.2087 | 8.9166 | 0.9502 | 4.5102 | 0.6542 | 2.6333 | 0.4205 | 1.2419 | 0.0941 | 0.7858 | −0.1047 | 5.3398 |  |  | 15 | 16 | 16 | 
4 | CCCCOc1ccccc1NC(=O)OC(CN(CCC)CCC)CN1CCCC1 (stereo not shown) [1a] | 32 (≈ 13.4 µg/mL) | 32 (≈ 13.4 µg/mL) | 0.06464 | 3.7688 | 5.2060 | 0.7165 | 3.7636 | 0.5756 | 2.4877 | 0.3958 | 1.5878 | 0.2008 | 0.9114 | −0.0403 | 3.7768 | 125 (≈ 52.5 µg/mL) | 125 (≈ 52.5 µg/mL) | 213 (≈ 89.4 µg/mL) |  |  | 
5 | CCCCCCOc1ccccc1NC(=O)OC(CN(CCC)CCC)CN1CCCCCC1 (stereo not shown) [1k] | 8 (≈ 3.81 µg/mL) | 16 (≈ 7.61 µg/mL) | 0.06065 | 5.2359 | 20.0586 | 1.3023 | 11.0255 | 1.0424 | 6.3650 | 0.8038 | 3.3274 | 0.5221 | 2.1394 | 0.3303 | 4.9286 | 32 (≈ 15.2 µg/mL) | 62.5 (≈ 29.7 µg/mL) |  |  |  | MIC [3, 8]: 390 µM (≈ 186 µg/mL)
6 | CCCCCOc1ccccc1NC(=O)OC(CN(CCC)CCC)CN1CCCCCC1.O=C(O)C(=O)O (stereo not shown) [1j, 1-[2-[({[2-(Pentyloxy)phenyl]amino}carbonyl)oxy]-3-(dipropylammonio)propyl]-azepanium oxalate] | 16 | 32 | 0.06206 | 4.8466 | 12.1983 | 1.0863 | 7.9086 | 0.8981 | 4.8173 | 0.6828 | 2.8242 | 0.4509 | 1.3960 | 0.1449 | 4.6600 |  |  | 6.2 | 62.5 | 125 | 
